Residues, ends and D or L forms follow the SMILES beside them. *: point of attachment. Cbz = O=C(OCc1ccccc1)*
Tests used:
BIRC3 = biological target: T1, BIRC3 (Homo sapiens, UniProt Q13489); experiment: Western blot of BIRC3 content in human T cells; assay type: cell-based; settings: MG132 10 μM with EV-3, 24 h
T1 construct: endogenous in cells; host or cells: primary human T cells

NuRD complex = experiment: Expression-based proteomics (TMT-exp) of compound-treated T cells, NuRD complex; assay type: cell-based, human; settings: MG132 10 μM co-treatment, 24 h
Procedure: FIG. 7B is a scatter plot representation of protein abundance changes caused by BPK-25 (10 μM, 24 h) in two independent replicate experiments, with decreases in NuRD complex components highlighted in red. FIG. 7C is a heatmap of top proteins with decreased abundance in BPK-25-treated T cells showing that the subset of these proteins in the NuRD complex (asterisks) were largely unaltered by other active compounds and blocked in their degradation by co-treatment with the proteasome inhibitor MG132. […] FIG. 7E is a bar graph […] showing time-dependent reductions in NuRD complex members in human T cells treated with BPK-25 (10 μM). Left, representative western blots. Right, quantification of changes in protein. […] FIG. 7G is a heat map showing the changes in cysteine reactivity for NuRD complex members in human T cells treated with BPK-25 and other active compounds.
Freshly isolated T cells (1.6×10^7 cells, 2×10^6 cells/mL in RPMI media) were treated with compound or DMSO for 24 h, pelleted (600 g, 5 min), and washed with PBS (1×10 mL). The cells were then transferred to an Eppendorf tube in additional PBS (1 mL), pelleted (600 g, 5 min), flash frozen, and kept at −80° C. until further analysis. On the first day of the whole proteome TMT protocol, the cells were thawed on ice and lysed in lysis buffer (150 μL, 1 tablet of Roche complete, mini, EDTA-free Protease Inhibitor Cocktail dissolved in 10 mL of PBS) using a probe sonicator (2×8 pulses). Protein concentration was adjusted to 2.0 mg/mL and the samples (100 μL) were transferred to new Eppendorf tubes (1.5 mL) containing urea (48 mg/tube, final urea concentration: 8 M). DTT (5 μL, 200 mM fresh stock in H2O, final DTT concentration: 10 mM) was then added to the tubes and the samples were incubated at 65° C. for 15 min. Following this incubation, iodoacetamide (5 μL, 400 mM fresh stock in H2O, final IA concentration: 20 mM) was added and the samples were incubated in the dark at 37° C. with shaking for 30 min. Ice-cold MeOH (600 μL), CHCl3 (200 μL), and H2O (500 μL) were then added, the mixture was vortexed and centrifuged (10,000 g, 10 min, 4° C.) to afford a protein disc at the interface of CHCl3 and aqueous layers. The top layer was aspirated without perturbing the disk, additional MeOH (600 μL) was added and the proteins were pelleted (10,000 g, 10 min, 4° C.) and used in the next step or stored at −80° C. overnight.
The resulting protein pellets were resuspended in EPPS buffer (160 μL, 200 mM, pH 8) using a probe sonicator (2×6 pulses). […]
The sample became clear after the overnight digestion. At this point, peptide concentration was determined using microBCA assay (Thermo Scientific) according to manufacturer's instructions. […]

ITK = biological target: T2, ITK (Homo sapiens, UniProt Q08881); experiment: Western blot of ITK protein content in T cells; assay type: cell-based; settings: MG132 10 μM
T2 construct: endogenous in cells; host or cells: primary human T cells (αCD3/CD28-stimulated, naïve or expanded)
T2 sequence (Q08881 1-620): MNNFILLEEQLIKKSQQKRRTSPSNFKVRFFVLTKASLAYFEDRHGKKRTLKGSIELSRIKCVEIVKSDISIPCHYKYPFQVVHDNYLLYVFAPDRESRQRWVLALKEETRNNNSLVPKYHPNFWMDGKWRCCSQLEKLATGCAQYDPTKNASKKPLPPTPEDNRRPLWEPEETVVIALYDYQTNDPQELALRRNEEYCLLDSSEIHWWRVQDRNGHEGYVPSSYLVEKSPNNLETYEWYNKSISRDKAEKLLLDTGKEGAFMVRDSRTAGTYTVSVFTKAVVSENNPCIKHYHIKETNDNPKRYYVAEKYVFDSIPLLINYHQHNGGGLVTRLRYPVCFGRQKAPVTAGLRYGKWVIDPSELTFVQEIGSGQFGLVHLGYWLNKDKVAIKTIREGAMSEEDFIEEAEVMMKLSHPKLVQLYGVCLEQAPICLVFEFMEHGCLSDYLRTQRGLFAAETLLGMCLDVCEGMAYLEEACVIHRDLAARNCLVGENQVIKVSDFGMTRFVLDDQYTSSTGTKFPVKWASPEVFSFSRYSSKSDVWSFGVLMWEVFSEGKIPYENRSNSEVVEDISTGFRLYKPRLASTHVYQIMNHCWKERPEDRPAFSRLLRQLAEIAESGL
Procedure: T cells were treated with DMSO or compounds (5 μM each) for 8 h. […] (F) Quantitation of western blot data, where protein band intensity calculations were made using ImageJ software and represent the mean percentage of DMSO-treated control±SD; n=2-5 independent experiments per group. **p<0.01 by two-tailed unpaired t test with Welch's correction compared to EV-97 treatment. […] Data are presented as the mean percentage of DMSO-treated control±SEM; n=4 independent experiments per group. ****p<0.0001 by two-tailed unpaired t test with Welch's correction compared to DMSO-treated stim control.
Results are from one experiment representative of 2-5 independent experiments. […] Cells were treated with compounds (5 μM each) or DMSO control for 8 h. Protein band intensity calculations were made using ImageJ software and represent the mean percentage of DMSO-treated control±SD; n=2-5 independent experiments per group. **p<0.01 by two-tailed unpaired t test with Welch's correction compared to DMSO-treated stim control. […] Cells treated with DMSO or EV-96 (5 μM) for 1-8 h. Results are from a single experiment representative of 2-4 independent experiments. […] Cells were treated with compounds (5 μM each) or DMSO for 8 h. Results are from one experiment representative of 2 independent experiments.

BIRC2 = BIRC2 (Homo sapiens, UniProt Q13490); experiment: Western blot of BIRC2 content in human T cells; settings: MG132 10 μM with EV-3, 24 h
Procedure: All treatments were for 24 h.
All treatments were for 24 h. […] Plasmids expressing FLAG epitope-tagged versions of wild-type (WT) or the indicated cysteine-to-alanine mutants of BIRC2 (C45A) and BIRC3 (C28A) were co-transfected into primary human T cells with mCherry-expressing plasmid to control for transfection efficiency for 24 h. Cells were then treated with DMSO, EV-3 (10 μM), or AT-406 (1 μM) for 24 h and analyzed by anti-FLAG western blotting. […] (G) Quantitation of western blot data, where protein band intensity calculations were made using ImageJ software and represent the mean percentage of DMSO treated control±SEM; n=3 independent experiments per group. *p<0.05; **p<0.01 by two-tailed unpaired t test with Welch's correction compared to respective DMSO treatments.
Western blot analysis was performed on freshly isolated or expanded T cells. For Western blot protein degradation analysis, primary human T cells (2×10^7 cells/treatment) were re-suspended in RPMI media at 2×10^6 cells/mL and treated with the compounds or DMSO at 37° C. in a CO2 containing incubator for 24 h (or otherwise indicated times).

ERCC3 = biological target: T3, ERCC3 (Homo sapiens, UniProt P19447); experiment: isoTOP-ABPP and TMT-ABPP cysteine engagement, ERCC3; assay type: binding
T3 construct: endogenous in cells; host or cells: primary human T cells
T3 sequence (P19447 1-782): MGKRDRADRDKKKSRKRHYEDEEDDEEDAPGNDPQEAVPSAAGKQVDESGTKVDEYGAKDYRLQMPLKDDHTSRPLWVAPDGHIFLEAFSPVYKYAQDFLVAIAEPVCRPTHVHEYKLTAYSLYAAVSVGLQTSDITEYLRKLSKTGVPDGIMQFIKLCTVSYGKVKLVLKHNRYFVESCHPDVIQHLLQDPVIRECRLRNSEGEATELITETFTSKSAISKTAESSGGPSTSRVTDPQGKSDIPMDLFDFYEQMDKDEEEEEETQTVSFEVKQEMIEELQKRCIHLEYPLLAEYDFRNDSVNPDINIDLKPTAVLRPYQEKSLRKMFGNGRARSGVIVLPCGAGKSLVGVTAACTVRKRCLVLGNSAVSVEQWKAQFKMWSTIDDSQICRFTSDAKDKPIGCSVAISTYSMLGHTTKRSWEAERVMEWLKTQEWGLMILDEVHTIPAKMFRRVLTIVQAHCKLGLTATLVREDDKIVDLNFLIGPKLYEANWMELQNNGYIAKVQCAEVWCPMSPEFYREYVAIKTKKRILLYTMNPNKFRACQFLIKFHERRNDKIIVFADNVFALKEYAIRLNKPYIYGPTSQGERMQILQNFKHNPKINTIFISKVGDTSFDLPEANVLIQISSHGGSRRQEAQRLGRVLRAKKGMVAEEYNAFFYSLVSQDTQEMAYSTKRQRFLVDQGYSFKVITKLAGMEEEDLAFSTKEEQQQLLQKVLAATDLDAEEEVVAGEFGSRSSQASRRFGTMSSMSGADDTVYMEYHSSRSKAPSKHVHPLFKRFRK
Procedure: Activated or expanded T cells were re-suspended in RPMI media supplemented with 10% FBS, L-glutamine (2 mM), penicillin (100 U/mL), and streptomycin (100 μg/mL) at 2×10^6 cells/mL. The compounds were added to cells as 1000×DMSO stocks and mixed well with the media by pipetting up and down after addition. The cells were kept at 37° C. in 5% CO2 containing incubators for 3 h (or otherwise specified times), then pelleted by centrifugation (524 g, 5 min, 4° C.), washed with cold PBS (10 mL) and transferred to Eppendorf tubes (1 mL PBS). The cells were pelleted again (524 g, 5 min, 4° C.), flash-frozen, and kept at −80° C. until further analysis.
Activated or expanded primary human T cells were re-suspended in RPMI (1×10^6 cells/mL) containing 10% fetal bovine serum (FBS), penicillin (100 U/mL), streptomycin ([…]), and L-glutamine (2 mM). The cells were treated with DMSO or compounds for 3 h, pelleted (524 g, 5 min), washed with PBS, and lysed by sonication (2×8 pulses). Soluble and particulate proteomic fractions were separated by ultracentrifugation (100,000 g, 45 min), and protein concentration was normalized to 1.7 mg/mL using a standard DC protein assay (Bio-Rad). The resulting proteomes were analyzed by competitive isotopic Tandem Orthogonal Proteolysis Activity-Based Protein Profiling (isoTOP-ABPP).
Samples (500 μL, 1.7 mg/mL) were treated with iodoacetamide alkyne (IA-alkyne, 5 μL of 10 mM stock in DMSO, final concentration: 100 μM) for 1 h at ambient temperature. Modified proteins were then conjugated to isotopically labeled, TEV-cleavable biotin tags (TEV-tags) using copper-catalyzed azide-alkyne cycloaddition reaction (CuAAC). Reagents for the CuAAC reaction were pre-mixed prior to their addition to the proteome samples. […]
The heavy/light isoTOP-ABPP ratios (R values) for each unique peptide (DMSO/compound treated) were quantified with in-house CIMAGE software (Weerapana et al., 2010) using default parameters (3 MS1 acquisitions per peak and signal to noise threshold set to 2.5). Site-specific engagement of cysteine residues was assessed by blockade of IA-alkyne probe labeling. […] Ratios for unique peptide sequences were calculated for each experiment; overlapping peptides with the same modified cysteine (e.g., different charge states, elution times or tryptic termini) were grouped together and the median ratio was reported as the final ratio (R). […]

primary human T cells = settings: cited from earlier work
NF-κB = settings: cited from earlier work

Sequence of BIRC2 (Q13490 whole entry): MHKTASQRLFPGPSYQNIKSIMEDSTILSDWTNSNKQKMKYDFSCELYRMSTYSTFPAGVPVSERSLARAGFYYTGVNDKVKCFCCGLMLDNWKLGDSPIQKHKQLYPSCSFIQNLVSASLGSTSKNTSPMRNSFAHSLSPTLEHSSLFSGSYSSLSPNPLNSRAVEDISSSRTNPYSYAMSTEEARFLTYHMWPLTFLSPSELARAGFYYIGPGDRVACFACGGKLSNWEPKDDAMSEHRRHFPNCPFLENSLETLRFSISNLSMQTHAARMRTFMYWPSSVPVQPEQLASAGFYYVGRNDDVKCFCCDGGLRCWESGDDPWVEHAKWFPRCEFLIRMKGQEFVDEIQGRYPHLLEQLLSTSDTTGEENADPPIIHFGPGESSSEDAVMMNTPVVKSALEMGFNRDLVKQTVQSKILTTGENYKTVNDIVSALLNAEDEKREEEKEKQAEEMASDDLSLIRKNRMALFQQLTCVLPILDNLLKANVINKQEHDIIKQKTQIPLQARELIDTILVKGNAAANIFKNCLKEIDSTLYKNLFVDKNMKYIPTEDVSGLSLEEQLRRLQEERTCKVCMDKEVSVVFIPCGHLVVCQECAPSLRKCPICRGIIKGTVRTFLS
T1 sequence (Q13489 whole entry): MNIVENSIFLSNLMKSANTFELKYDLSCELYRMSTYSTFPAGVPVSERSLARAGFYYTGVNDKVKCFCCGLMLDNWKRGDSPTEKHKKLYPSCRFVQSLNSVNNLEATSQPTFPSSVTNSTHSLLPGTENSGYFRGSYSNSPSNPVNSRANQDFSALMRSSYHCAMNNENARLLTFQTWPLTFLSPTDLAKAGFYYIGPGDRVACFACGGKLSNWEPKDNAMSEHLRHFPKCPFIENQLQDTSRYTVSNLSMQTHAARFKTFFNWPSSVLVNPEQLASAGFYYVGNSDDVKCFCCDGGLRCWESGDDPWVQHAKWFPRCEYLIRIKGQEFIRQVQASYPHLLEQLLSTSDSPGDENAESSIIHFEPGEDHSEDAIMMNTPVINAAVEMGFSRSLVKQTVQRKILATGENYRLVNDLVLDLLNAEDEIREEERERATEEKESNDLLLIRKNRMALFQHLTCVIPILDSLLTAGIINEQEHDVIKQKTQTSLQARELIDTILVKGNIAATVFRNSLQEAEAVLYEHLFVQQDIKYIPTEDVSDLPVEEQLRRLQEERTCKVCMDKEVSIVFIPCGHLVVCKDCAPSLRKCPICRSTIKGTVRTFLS

Row | SMILES | effect on EV-3-induced loss of BIRC3 (BIRC3) | effect on BPK-25-mediated reductions in NuRD complex proteins (NuRD complex) | effect on EV-96-mediated loss of ITK (co-treatment) (ITK) | effect on EV-3-induced loss of BIRC2 (BIRC2) | engagement of C342 of ERCC3 (ERCC3) | effect on T cell activation (has been shown) (primary human T cells) | NF-κB DNA binding activity (has been shown) (NF-κB)
1 | CC(C)C[C@@H](C=O)NC(=O)[C@H](CC(C)C)NC(=O)[C@H](CC(C)C)NC(=O)OCc1ccccc1 [MG132, reference compound] (Cbz-Leu-Leu-Leu-aldehyde) | blocks | blocked | blocked | blocks | – | – | –
2 | CC(C)[C@]12O[C@H]1[C@@H]1O[C@]13[C@]1(O[C@H]1C[C@H]1C4=C(CC[C@@]13C)C(=O)OC4)[C@@H]2O [triptolide] | – | – | – | – | also targeted | impair T cell activation | without blocking

— patent US20240131032A1, “AN ACTIVITY-GUIDED MAP OF ELECTROPHILE-CYSTEINE INTERACTIONS IN PRIMARY HUMAN IMMUNE CELLS” (The Scripps Research Institute, priority 2019, published 2024)
